Consider four molecules from US4051241A.

The conditions of series [1]: human, in vivo. The method, then:
The plasma of each volunteer was analyzed for organic solvent extractable radioactivity over a 24 hour period.

Series [2] in a line: Metabolic effects: loss of urinary nitrogen and calcium. The method, then:
Four normal subjects were admitted to a hospital metabolic ward and maintained on a constant diet for days 1-3, the equilibration period.
On days 4-9, the control period, the subjects were also kept on the same constant diet and their urine was collected every 24 hours and assayed for nitrogen and calcium, determined fluorometrically using the method of Henry, R. J., Clinical Chemistry Principles and Techniques, 3rd Edition, p.
On days 10-15, the treatment period, the subjects were still kept on the same constant diet, and 20 mg. (three subjects, 1, 2 and 3) and 12.5 mg. (one subject, 4) of 6-chloro-11β,17α,21-trihydroxypregna-1,4-diene-3,20-dione were daily orally administered in a single dose. The urine of the subjects was collected every 24 hours and assayed for nitrogen and calcium.
After 8 weeks had elapsed, subjects 1 and 2 were readmitted to the hospital metabolic ward.

In series [3] the test system is HPA axis. The conditions noted are these: in vivo. The method, then: 1. Fasting plasma cortisol level at 6 A.M. on each of days 1-14, according to the method of Murphy et al., J. Clin. Endocr.
3. […] The urine of each of the subjects was collected at 6 hour intervals during the entire 14 day period and analyzed for 17-ketogenic steroids for the METP test.

The conditions of series [4]: described in U.S. Pat. No. 3,232,965; cited from earlier work.
For series [5] the following is noted: cited from earlier work.
In series [6] the test system is HPA axis.
Method: (§1) Each of 39 normal human subjects was hospitalized on a clinical pharmacology ward for the entire time (14 days) while the procedures described herein were carried out.
(§2) The following tests were performed, except as otherwise indicated in Table II below, on each of the subjects:
Metyrapone (METP) test, according to a modification of the method described by Liddle et al., J. Clin. Endocr. […] The urine of each of the subjects was collected at 6 hour intervals during the entire 14 day period and analyzed for 17-ketogenic steroids for the METP test.
On each of days 5-11 the various corticosteroids were orally administered, all subjects receiving their daily single dosage of corticosteroids at 6 A.M. Tabulated below, in Table II, are the numbers of subjects receiving a particular dosage per day of a particular corticosteroid.
In series [7] the test system is HPA axis. The conditions noted are these: oral, 6 A.M., 7 days.
Method: as §1, §2
On each of days 5-11 the various corticosteroids were orally administered, all subjects receiving their daily single dosage of corticosteroids at 6 A.M. Tabulated below, in Table II, are the numbers of subjects receiving a particular dosage per day of a particular corticosteroid. The dosage regimens chosen reflect the relative potencies of the corticosteroids tested.

SMILES strings stand for the structures. Where two headings read alike, the source gives them in different places. Some results are limits rather than exact numbers.

Regarding `C[C@]12C=CC(=O)C=C1C(Cl)=C[C@@H]1[C@@H]2[C@@H](O)C[C@@]2(C)[C@H]1CC[C@]2(O)C(=O)CO`, in series [1], the Plasma Half-Life was 2 h; the “half-life, volunteer No. 1” value is listed as “approximately 110 minutes”; the “half-life, volunteer No. 2” value is “approximately 125 minutes”. The “loss of nitrogen and calcium, comparison of 6-chloro compound with prednisolone” value in series [2] (in vivo) is recorded as “minimized”. Besides, in series [3], the “unwanted side-effects associated with HPA axis suppression” value is given as “not present”. Also, the action entry in series [4] was “cortisone like (anti-inflammatory) action”.

Consider `C[C@]12C=CC(=O)C=C1CC[C@H]1[C@@H]3C[C@@H](O)[C@](O)(C(=O)CO)[C@@]3(C)C[C@H](O)[C@@]12F` [9α-Fluoro-16α-hydroxyprednisolone, 9α-fluoro-11β,16α,17α,21-tetrahydroxypregna-1,4-diene-3,20-dione], for which, in series [5] (in vivo), the “Plasma Half-Life” value is at least 3.33 h.

Turning to `C[C@H]1C[C@H]2[C@@H]3CCC4=CC(=O)C=C[C@]4(C)[C@@]3(F)[C@@H](O)C[C@]2(C)[C@@]1(O)C(=O)CO` [9α-Fluoro-16β-methylprednisolone], the “subjects showing a normal metyrapone test” value in series [6] (in vivo) is reported as “none”.

Consider `C[C@]12C=CC(=O)C=C1CC[C@@H]1[C@@H]2[C@@H](O)C[C@@]2(C)[C@H]1CC[C@]2(O)C(=O)CO` [Prednisolone], for which, in series [2] (equipotent doses, subjects 1 and 2), the “loss of nitrogen and calcium, comparison of 6-chloro compound with prednisolone” value was “greater loss of both nitrogen and calcium”. Besides, the “Normal/Total A.M. Plasma Cortisol” value in series [7] (5.0 mg per day) and in series [7] (10.0 mg per day) was 3/3 each time. Also, the “Normal/Total METP Response” value in series [6] (25.0 mg per day, oral, 6 A.M., 7 days) was 3/3. In addition, in series [5] (Melby, Ann. Int. Med., 81:505-512, 1974), the “Plasma Half-Life” value was at least 3.33 h.
